According to patent publication US10316017B2, “COT modulators and methods of use thereof” (Gilead Sciences, Inc., priority 2015, dated 2019):

Experiments:
[1] = test system: TNFα production in LPS-stimulated human monocytes; assay: Cot Monocyte TNFα Cell Based Assay; conditions: Homo sapiens, Monocyte, TNFα in LPS-stimulated human monocytes; read-out: EC50 TNF
How it was run: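 5,000 cells/well; cmpd 1 h, 37 °C, 0.5% DMSO final; LPS 50 pg/ml, 4 h, 37 °C; media TNFα by HTRF sandwich (cryptate/XL665), RT overnight; % control vs unstimulated/stimulated wells.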

[2] = biological target: T1, human Cot catalytic domain (30-397 amino acids) (Homo sapiens, UniProt P41279); assay: High Throughput Cot Biochemical Assay (KinEASE TR-FRET); conditions: Cot KinEASE TR-FRET (HTRF) biochemical assay, 400 μM ATP; read-out: IC50 HTRF
T1 construct: Purified recombinant human Cot catalytic domain (30-397 amino acids) was purchased from Cama Biosciences; purchased Cama Biosciences (so in the source)
T1 sequence (P41279 30-397): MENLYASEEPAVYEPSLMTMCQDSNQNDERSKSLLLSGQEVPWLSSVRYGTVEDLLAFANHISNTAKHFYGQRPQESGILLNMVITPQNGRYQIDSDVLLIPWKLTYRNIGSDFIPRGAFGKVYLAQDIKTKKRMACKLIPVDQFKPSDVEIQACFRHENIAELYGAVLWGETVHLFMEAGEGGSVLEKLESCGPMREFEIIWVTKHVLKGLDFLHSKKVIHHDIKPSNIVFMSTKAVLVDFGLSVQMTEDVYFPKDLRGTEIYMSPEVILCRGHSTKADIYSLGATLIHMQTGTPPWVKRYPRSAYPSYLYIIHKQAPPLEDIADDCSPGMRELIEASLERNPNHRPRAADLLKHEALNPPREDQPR
How it was run: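 First, purified human Cot (aa 30-397) at 5 nM phosphorylates an XL665-labeled STK3 peptide (1 μM) at 400 μM ATP, pH 7.0, 0.1% DMSO. Then a europium-conjugated phospho-specific antibody binds the product, giving the TR-FRET signal.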

Compound | EC50 [1] [nM] | IC50 [2] [nM]
CC(C)(C)CNc1c(C#N)cnc2c(Cl)cc(N[C@H](c3cn(C4CC4)nn3)c3ccccc3OC(F)(F)F)cc12 [Example 122, (S)-8-chloro-6-(((1-cyclopropyl-1H-1,2,3-triazol-4-yl)(2-(trifluoromethoxy)phenyl)methyl)amino)-4-(neopentylamino) quinoline-3-carbonitrile] | 201 | 19
[2H][C@](Nc1cc(Cl)c2ncc(C#N)c(Nc3ccccc3OC(F)(F)F)c2c1)(c1ccc(F)cc1)c1cn(C2CC2)nn1 [Example 126, (S)-8-chloro-6-(((1-cyclopropyl-1H-1,2,3-triazol-4-yl)(4-fluorophenyl)methyl-d)amino)-4-((2-(trifluoromethoxy)phenyl)amino)quinoline-3-carbonitrile] | > 10000 | 397
[2H][C@@](Nc1cc(C#N)c2ncc(C#N)c(NC3CCOCC3(C)C)c2c1)(c1cn(C2CC2)nn1)c1ccccc1Cl (stereo partly drawn) [Example 128, 6-(((S)-(2-chlorophenyl) (1-cyclopropyl-1H-1,2,3-triazol-4-yl)methyl-d)amino)-4-((3,3-dimethyltetrahydro-2H-pyran-4-yl)amino)quinoline-3,8-dicarbonitrile] | 54 | 2
[2H][C@](Nc1ccc2ncc(C#N)c(NCC(C)(C)C)c2c1)(c1ccc(F)cc1)c1cn(C2CC2)nn1 [Example 133, 6-(((1-cyclopropyl-1H-1,2,3-triazol-4-yl)(4-fluorophenyl)methyl-d)amino)-4-(neopentylamino) quinoline-3-carbonitrile] | 313 | 21
[2H][C@](Nc1cc(Cl)c2ncc(C#N)c(NCC(C)(C)CC#N)c2c1)(c1ccc(F)cc1)c1cn(C2CC2)nn1 [Example 134, (S)-8-chloro-4-((3-cyano-2,2-dimethylpropyl)amino)-6-(((1-cyclopropyl-1H-1,2,3-triazol-4-yl)(4-fluorophenyl)methyl-d)amino)quinoline-3-carbonitrile] | 142 | 6
[2H][C@](Nc1cc(Cl)c2ncc(C#N)c(NC3(C4CC4)CC3)c2c1)(c1ccc(F)cc1)c1cn(C2CC2)nn1 [Example 135, (S)-4-([1,1'-bi(cyclopropan)]-1-ylamino)-8-chloro-6-(((1-cyclopropyl-1H-1,2,3-triazol-4-yl)(4-fluorophenyl)methyl-d)amino)quinoline-3-carbonitrile] | 7500 | 962
[2H][C@@](Nc1cc(Cl)c2ncc(C#N)c(N[C@H](CCC#N)c3ccccc3)c2c1)(c1cn(C2CC2)nn1)c1cccc(C#N)c1C [Example 136, 8-chloro-4-(((R)-3-cyano-1-phenylpropyl)amino)-6-(((S)-(3-cyano-2-methylphenyl)(1-cyclopropyl-1H-1,2,3-triazol-4-yl)methyl-d)amino) quinoline-3-carbonitrile] | 20 | 1
[2H][C@](Nc1cc(-c2cnn(C)c2)c2ncc(C#N)c(NCC(C)(C)C)c2c1)(c1ccc(F)cc1)c1cn(C2CC2)nn1 [Example 137, (S)-6-(((1-cyclopropyl-1H-1,2,3-triazol-4-yl)(4-fluorophenyl)methyl-d)amino)-8-(1-methyl-1H-pyrazol-4-yl)-4-(neopentylamino) quinoline-3-carbonitrile] | 4370 | 606
[2H][C@](Nc1cc(-c2ccncc2)c2ncc(C#N)c(NCC(C)(C)C)c2c1)(c1ccc(F)cc1)c1cn(C2CC2)nn1 [Example 140, (S)-6-(((1-cyclopropyl-1H-1,2,3-triazol-4-yl)(4-fluorophenyl)methyl-d)amino)-4-(neopentylamino)-8-(pyridin-4-yl)quinoline-3-carbonitrile] | > 10000 | 1500
[2H][C@@](Nc1cc(Cl)c2ncc(C#N)c(NC3CCOCC3(C)C)c2c1)(c1cn(C2CC2)nn1)c1ccccc1Cl (stereo partly drawn) [Example 141, 8-chloro-6-(((S)-(2-chlorophenyl)(1-cyclopropyl-1H-1,2,3-triazol-4-yl)methyl-d)amino)-4-((3,3-dimethyltetrahydro-2H-pyran-4-yl)amino) quinoline-3-carbonitrile] | 72 | 5
[2H][C@](Nc1cc(Cl)c2ncc(C#N)c(NC3[C@H]4COC[C@@H]34)c2c1)(c1ccc(F)cc1)c1cn(C2CC2)nn1 (stereo partly drawn) [Example 142, 4-(((1R,5S)-3-oxabicyclo[3.1.0]hexan-6-yl)amino)-8-chloro-6-(((S)-(1-cyclopropyl-1H-1,2,3-triazol-4-yl)(4-fluorophenyl)methyl-d)amino)quinoline-3-carbonitrile] | 77 | 8
[2H][C@](Nc1cc(Cl)c2ncc(C#N)c(NC3CC34CCCCC4)c2c1)(c1ccc(F)cc1)c1cn(C2CC2)nn1 (stereo partly drawn) [Example 143, 8-chloro-6-(((S)-(1-cyclopropyl-1H-1,2,3-triazol-4-yl)(4-fluorophenyl)methyl-d)amino)-4-(spiro[2.5]octan-1-ylamino)quinoline-3-carbonitrile] | 1170 | 99
[2H][C@](Nc1cc(Cl)c2ncc(C#N)c(NCCc3ccn(C)n3)c2c1)(c1ccc(F)cc1)c1cn(C2CC2)nn1 [Example 148, (S)-8-chloro-6-(((1-cyclopropyl-1H-1,2,3-triazol-4-yl)(4-fluorophenyl)methyl-d)amino)-4-((2-(1-methyl-1H-pyrazol-3-yl)ethyl)amino) quinoline-3-carbonitrile] | 8670 | 2140

Further compounds by falling EC50 [1], results first:

EC50 [1] [nM] | IC50 [2] [nM] | Compound
5870 | > 10000 | [2H][C@](Nc1ccc2nc(F)c(C#N)c(NCC(C)(C)C)c2c1)(c1ccc(F)cc1)c1cn(C2CC2)nn1 [Example 151, (S)-6-(((1-cyclopropyl-1H-1,2,3-triazol-4-yl)(4-fluorophenyl)methyl-d)amino)-2-fluoro-4-(neopentylamino) quinoline-3-carbonitrile]
3610 | 254 | [2H][C@](Nc1cc(Cl)c2ncc(C#N)c(NCCc3nccs3)c2c1)(c1ccc(F)cc1)c1cn(C2CC2)nn1 [Example 147, (S)-8-chloro-6-(((1-cyclopropyl-1H-1,2,3-triazol-4-yl)(4-fluorophenyl)methyl-d)amino)-4-((2-(thiazol-2-yl)ethyl)amino) quinoline-3-carbonitrile]
2110 | 162 | [2H][C@](Nc1cc(Cl)c2ncc(C#N)c(NCCc3ccnn3C)c2c1)(c1ccc(F)cc1)c1cn(C2CC2)nn1 [Example 149, (S)-8-chloro-6-(((1-cyclopropyl-1H-1,2,3-triazol-4-yl)(4-fluorophenyl)methyl-d)amino)-4-((2-(1-methyl-1H-pyrazol-5-yl)ethyl)amino) quinoline-3-carbonitrile]
1360 | 139 | [2H][C@](Nc1cc(C(=O)N(C)C)c2ncc(C#N)c(NCC(C)(C)C)c2c1)(c1ccc(F)cc1)c1cn(C2CC2)nn1 [Example 138, (S)-3-cyano-6-(((1-cyclopropyl-1H-1,2,3-triazol-4-yl) (4-fluorophenyl)methyl-d)amino)-N,N-dimethyl-4-(neopentylamino) quinoline-8-carboxamide]
895 | 95 | [2H][C@](Nc1cc(Cl)c2ncc(C#N)c(N[C@@H]3CCOCC3(C)C)c2c1)(c1ccc(F)cc1)c1cn(C2CC2)nn1 [Example 146, 8-chloro-6-(((S)-(1-cyclopropyl-1H-1,2,3-triazol-yl)(4-fluorophenyl)methyl-d)amino)-4-(((R)-3,3-dimethyltetrahydro-2H-pyran-4-yl)amino) quinoline-3-carbonitrile]
344 | 20 | [2H][C@@](Nc1cc(C#N)c2ncc(C#N)c(NCC(C)(C)C)c2c1)(c1cn(C2(C(F)(F)F)CC2)nn1)c1ccccc1Cl [Example 129, (S)-6-(((2-chlorophenyl) (1-(1-(trifluoromethyl)cyclopropyl)-1H-1,2,3-triazol-4-yl)methyl-d)amino)-4-(neopentylamino) quinoline-3,8-dicarbonitrile]
276 | 33 | [2H][C@](Nc1cc(-c2ccc(F)nc2)c2ncc(C#N)c(NCC(C)(C)C)c2c1)(c1ccc(F)cc1)c1cn(C2CC2)nn1 [Example 139, (S)-6-(((1-cyclopropyl-1H-1,2,3-triazol-4-yl)(4-fluorophenyl)methyl-d)amino)-8-(6-fluoropyridin-3-yl)-4-(neopentylamino) quinoline-3-carbonitrile]
218 | 14 | [2H][C@@](Nc1cc(Cl)c2ncc(C#N)c(N[C@@H]3[C@@H]4CCC[C@@H]43)c2c1)(c1cn(C2CC2)nn1)c1ccccc1Cl [Example 124, 4-(((1R,5S,6s)-bicyclo [3.1.0]hexan-6-yl)amino)-8-chloro-6-(((2-chlorophenyl)(1-cyclopropyl-1H-1,2,3-triazol-4-yl)methyl-d)amino) quinoline-3-carbonitrile]
195 | 23 | [2H][C@](Nc1cc(C#N)c2ncc(C#N)c(NCC(C)(C)C)c2c1)(c1ccc(F)cc1)c1cn(C2(C(F)(F)F)CC2)nn1 [Example 130, (S)-6-(((4-fluorophenyl) (1-(1-(trifluoromethyl)cyclopropyl)-1H-1,2,3-triazol-4-yl)methyl-d)amino)-4-(neopentylamino) quinoline-3,8-dicarbonitrile]
140 | 14 | [2H][C@](Nc1cc(C#N)c2ncc(C#N)c(N[C@H](CC)c3ccccc3)c2c1)(c1ccc(F)cc1)c1cn(C2(C(F)(F)F)CC2)nn1 [Example 132, 6-(((S)-(4-fluorophenyl) (1-(1-(trifluoromethyl)cyclopropyl)-1H-1,2,3-triazol-4-yl)methyl-d)amino)-4-(((R)-1-phenylpropyl)amino)quinoline-3,8-dicarbonitrile]
